Columns and labels:
[1] = Binding affinity of compound to the stromelysin-1 catalytic domain at pH 6.7, 22 degree C
[2] = Binding affinity of compound to the stromelysin-1 catalytic domain at pH 6.0, 22 degree C

Kd [1] [nM] | Kd [2] [nM] | Structure (SMILES)
679 | – | CC(C)[C@@H](NS(=O)(=O)c1ccc(-c2ccc(Br)cc2)cc1)C(=O)O
76.6 | 6.7 | CC(C)[C@H](NS(=O)(=O)c1ccc(-c2ccc(Br)cc2)cc1)C(=O)O
